Experimental data from ChEMBL document CHEMBL5532696, “Discovery of new tricyclic spiroindole derivatives as potent P-glycoprotein inhibitors for reversing multidrug resistance enabled by a synthetic methodology-based library” (RSC Med Chem, 2024).

Legend:
[1] = test system: Eca-109/VCR; test: Reversal of vincristine resistance in human Eca-109/VCR cells assessed as reduction in cell viability incubated for 48 hrs by CCK-8 assay; assay type: functional, cell-based
[2] = test system: ECa-109 cell line; test: Antiproliferative activity against human Eca-109 cells assessed as reduction in cell viability incubated for 48 hrs by CCK-8 assay; assay type: functional, cell-based; settings: ECa-109, 48 h
[3] = test system: Eca-109/VCR; test: Antiproliferative activity against human Eca-109/VCR cells assessed as cell viability at 5 uM incubated for 48 hrs by CCK-8 assay (reference value: 100 +/- 1.8%); assay type: functional; settings: read-out: Activity
[4] = test system: Eca-109/VCR; test: Reversal of vincristine resistance in human Eca-109/VCR cells assessed as reversal fold by measuring ratio of vincristine IC50 to vincristine IC50 in presence of test compound at 5 uM incubated for 48 hrs by CCK8 assay; assay type: functional
[5] = test system: Eca-109/VCR; test: Induction of apoptosis in human Eca-109/VCR cells assessed as late apoptotic cells at 5 uM incubated for 48 hrs in presence of vincristine at 50 nM by Annexin V-FITC/DAPI staining based flow cytometry analysis (reference value: 5.06 %); assay type: functional
[6] = test system: Eca-109/VCR; test: Induction of apoptosis in human Eca-109/VCR cells assessed as late apoptotic cells at 5 uM incubated for 48 hrs by Annexin V-FITC/DAPI staining based flow cytometry analysis (reference value: 4.31 %); assay type: functional
[7] = test system: Eca-109/VCR; test: Induction of apoptosis in human Eca-109/VCR cells assessed as necrotic cells at 5 uM incubated for 48 hrs in presence of vincristine at 50 nM by Annexin V-FITC/DAPI staining based flow cytometry analysis (reference value: 0.062 %); assay type: functional
[8] = test system: Eca-109/VCR; test: Induction of apoptosis in human Eca-109/VCR cells assessed as early apoptotic cells at 5 uM incubated for 48 hrs by Annexin V-FITC/DAPI staining based flow cytometry analysis (reference value: 0.97 %); assay type: functional
[9] = test system: Eca-109/VCR; test: Induction of apoptosis in human Eca-109/VCR cells assessed as necrotic cells at 5 uM incubated for 48 hrs by Annexin V-FITC/DAPI staining based flow cytometry analysis (reference value: 0.073 %); assay type: functional
[10] = test system: Eca-109/VCR; test: Induction of apoptosis in human Eca-109/VCR cells assessed as viable cells at 5 uM incubated for 48 hrs in presence of vincristine at 50 nM by Annexin V-FITC/DAPI staining based flow cytometry analysis (reference value: 93.5 %); assay type: functional; settings: read-out: Activity
[11] = test system: Eca-109/VCR; test: Induction of apoptosis in human Eca-109/VCR cells assessed as viable cells at 5 uM incubated for 48 hrs by Annexin V-FITC/DAPI staining based flow cytometry analysis (reference value: 94.6 %); assay type: functional; settings: read-out: Activity
[12] = test system: Eca-109/VCR; test: Induction of apoptosis in human Eca-109/VCR cells assessed as early apoptotic cells at 5 uM incubated for 48 hrs in presence of vincristine at 50 nM by Annexin V-FITC/DAPI staining based flow cytometry analysis (reference value: 1.33 %); assay type: functional

| SMILES | viability at 5 µM [3] | Ratio IC50 [4] | also measured |
| --- | --- | --- | --- |
| O=C1c2c(O)ccc(O)c2C(=O)c2c(NCCNCCO)ccc(NCCNCCO)c21 [MITOXANTRONE] |  |  | IC50 [1]: 5.87 µM; IC50 [2]: 0.646 µM |
| COc1cc2c(c(OC)c1OC)-c1ccc(OC)c(=O)cc1[C@@H](NC(C)=O)CC2 [COLCHICINE] |  |  | IC50 [1]: 3.63 µM; IC50 [2]: 0.012 µM |
| O=C1c2cc([N+](=O)[O-])ccc2C2C1C(c1ccccc1)C1(Cc3ccccc3C1=O)C2c1ccccc1 (stereo unspecified) | 85.2% | 34.8 |  |
| CC(=O)O[C@@]12CO[C@@H]1C[C@H](O)[C@@]1(C)C(=O)[C@H](O)C3=C(C)[C@@H](OC(=O)[C@H](O)[C@@H](NC(=O)OC(C)(C)C)c4ccccc4)C[C@@](O)([C@@H](OC(=O)c4ccccc4)[C@H]21)C3(C)C [DOCETAXEL ANHYDROUS] |  |  | IC50 [1]: 9.73 µM; IC50 [2]: 0.773 µM |
| CN1C(=O)C2(c3cc(F)ccc31)C(C(=O)OC(C)(C)C)C1c3ccc([N+](=O)[O-])cc3C(=O)C1C2c1ccccc1 (stereo unspecified) | 101% | 6.6 |  |
| CCOC(=O)C1C2c3c(cccc3[N+](=O)[O-])C(=O)C2C(c2ccccc2)C12C(=O)N(C)c1ccccc12 (stereo unspecified) | 102% | 10.5 |  |
| CCOC(=O)C1C2c3ccc([N+](=O)[O-])cc3C(=O)C2C(c2ccccc2)C12C(=O)N(C)c1ccccc12 (stereo unspecified) | 102% | 86.8 |  |
| CCOC(=O)C1C2c3ccc([N+](=O)[O-])cc3C(=O)C2C(c2ccc(C)cc2)C12C(=O)N(C)c1ccccc12 (stereo unspecified) | 102% | 24.7 |  |
| CN1C(=O)C2(c3ccccc31)C(C(=O)OC(C)(C)C)C1c3ccc([N+](=O)[O-])cc3C(=O)C1C2c1ccccc1 (stereo unspecified) | 103% | 56.1 |  |
| O=C1c2cc([N+](=O)[O-])ccc2C2C1C(c1ccccc1)C(C(=O)c1ccccc1)C2C(F)(F)F (stereo unspecified) | 56.3% |  |  |
| CCOC(=O)C1C2c3ccc([N+](=O)[O-])cc3C(=O)C2C(c2cccc(C)c2)C12C(=O)N(C)c1ccccc12 (stereo unspecified) | 102% | 56.7 |  |
| CCOC(=O)C1C2c3ccc([N+](=O)[O-])cc3C(=O)C2C(c2ccccc2Br)C12C(=O)N(C)c1ccccc12 (stereo unspecified) | 96.4% | 1.8 |  |
| CCOC(=O)C1C2c3ccc([N+](=O)[O-])cc3C(=O)C2C(c2cccc(OC)c2)C12C(=O)N(C)c1ccccc12 (stereo unspecified) | 99.7% | 3 |  |
| CCOC(=O)C1C2c3ccc(Br)cc3C(=O)C2C(c2ccccc2)C12C(=O)N(C)c1ccccc12 (stereo unspecified) | 100% | 16.7 |  |
| CN1C(=O)C2(c3ncccc31)C(C(=O)OC(C)(C)C)C1c3ccc([N+](=O)[O-])cc3C(=O)C1C2c1ccccc1 (stereo unspecified) | 104% | 33.6 |  |
| CCOC(=O)C1C2c3ccc([N+](=O)[O-])cc3C(=O)C2C(c2ccccc2)C12C(=O)N(C)c1ccc(OC)cc12 (stereo unspecified) | 99.4% | 16.4 |  |
| CCOC(=O)C1C2c3ccc([N+](=O)[O-])cc3C(=O)C2C(c2ccc(Br)cc2)C12C(=O)N(C)c1ccccc12 (stereo unspecified) | 85.1% | 11.7 |  |
| CCOC(=O)C1C2c3ccc([N+](=O)[O-])cc3C(=O)C2C(c2ccccc2C)C12C(=O)N(C)c1ccccc12 (stereo unspecified) | 92.2% | 14.7 |  |
| COc1cccc2c1C(=O)c1c(O)c3c(c(O)c1C2=O)C[C@@](O)(C(=O)CO)C[C@@H]3O[C@H]1C[C@H](N)[C@H](O)[C@H](C)O1 [DOXORUBICIN] |  |  | IC50 [1]: 20.2 µM; IC50 [2]: 2.07 µM |

| SMILES | viability at 5 µM [3] | Ratio IC50 [4] | also measured |
| --- | --- | --- | --- |
| CCOC(=O)C1C2c3ccc(-n4cc(-c5ccccc5)nn4)cc3C(=O)C2C(c2ccccc2)C12C(=O)N(C)c1ccccc12 (stereo unspecified) | 98.9% | 56.1 |  |
| COc1ccc(CCN(C)CCCC(C#N)(c2ccc(OC)c(OC)c2)C(C)C)cc1OC (stereo unspecified) [VERAPAMIL] | 98.9% | 107.9 | Activity [5]: 3.93%; Activity [6]: 3.05%; Activity [7]: 0.32%; Activity [8]: 2.86%; Activity [9]: 0.049%; viability at 5 µM [10]: 83.6%; viability at 5 µM [11]: 94%; Activity [12]: 12.1% |
| O=C1c2cc([N+](=O)[O-])ccc2C2C1C(c1ccccc1)C([N+](=O)[O-])C2c1ccccc1 (stereo unspecified) | 78.2% | 49.9 |  |
| CN1C(=O)C2(c3cc(Cl)ccc31)C(C(=O)NC(C)(C)C)C1c3ccc([N+](=O)[O-])cc3C(=O)C1C2c1ccccc1 (stereo unspecified) | 97.5% | 659.1 |  |
| CCOC(=O)C1C2c3ccc([N+](=O)[O-])cc3C(=O)C2C(c2ccccc2)C12C(=O)N(C)c1c(C)cc(C)cc12 (stereo unspecified) | 89.7% | 2.3 |  |
| CN1C(=O)C2(c3cc(Cl)ccc31)C(C(=O)OC(C)(C)C)C1c3ccc([N+](=O)[O-])cc3C(=O)C1C2c1ccccc1 (stereo unspecified) | 98.2% | 388.1 |  |
| O=C1c2cc([N+](=O)[O-])ccc2C2C1C(c1ccccc1)C1(Oc3ccccc3C1=O)C2c1ccccc1 (stereo unspecified) | 99.1% | 15.2 |  |
| CN1C(=O)C2(c3cccc(Br)c31)C(C(=O)OC(C)(C)C)C1c3ccc([N+](=O)[O-])cc3C(=O)C1C2c1ccccc1 (stereo unspecified) | 99.8% | 38.6 |  |
| O=C1c2cc([N+](=O)[O-])ccc2C2C1C(c1ccccc1)C1(C(=O)c3ccccc3C1=O)C2c1ccccc1 (stereo unspecified) | 96.6% | 57.1 |  |
| CS(=O)(=O)CCNCc1ccc(-c2ccc3ncnc(Nc4ccc(OCc5cccc(F)c5)c(Cl)c4)c3c2)o1 [LAPATINIB] |  |  | IC50 [1]: 6.69 µM; IC50 [2]: 9.16 µM |
| CCOC(=O)C1C2c3ccc([N+](=O)[O-])cc3C(=O)C2C(c2ccccc2)C12C(=O)N(C)c1ccc(OC(F)(F)F)cc12 (stereo unspecified) | 91.9% | 1.7 |  |
| COc1cc2c(cc1OC)CN(CCc1ccc(NC(=O)c3cc(OC)c(OC)cc3NC(=O)c3cnc4ccccc4c3)cc1)CC2 [TARIQUIDAR] | 84.8% | 364.3 | Activity [5]: 6.59%; Activity [6]: 3.35%; Activity [7]: 0.68%; Activity [8]: 4.28%; Activity [9]: 0.1%; viability at 5 µM [10]: 79%; viability at 5 µM [11]: 92.3%; Activity [12]: 13.8% |
| CCOC(=O)C1C2c3ccc([N+](=O)[O-])cc3C(=O)C2C(c2ccco2)C12C(=O)N(C)c1ccccc12 (stereo unspecified) | 102% | 12.7 |  |
| COC(=O)C1C(C(=O)c2ccccc2)C(c2ccccc2)C2C(=O)c3cc([N+](=O)[O-])ccc3C12 (stereo unspecified) | 75.2% | 12.3 |  |
| CN1C(=O)C2(c3cc(Br)ccc31)C(C(=O)OC(C)(C)C)C1c3ccc([N+](=O)[O-])cc3C(=O)C1C2c1ccccc1 (stereo unspecified) | 105% | 2.9 |  |
| CCOC(=O)C1C2c3ccc([N+](=O)[O-])cc3C(=O)C2C(c2ccccc2)C12C(=O)N(C)c1cc(OC)ccc12 (stereo unspecified) | 90.5% | 53.2 |  |
| CCOC(=O)C1C2c3ccc([N+](=O)[O-])cc3C(=O)C2C(C2CC2)C12C(=O)N(C)c1ccccc12 (stereo unspecified) | 96.2% | 2.5 |  |
| CCOC(=O)C1C2c3ccc([N+](=O)[O-])cc3C(=O)C2C(c2ccccc2)C12C(=O)N(C)c1c(C)cccc12 (stereo unspecified) | 102% | 38.9 |  |
| CCOC(=O)C1C2c3ccc([N+](=O)[O-])cc3C(=O)C2C(c2ccc(C(F)(F)F)cc2)C12C(=O)N(C)c1ccccc12 (stereo unspecified) | 97.9% | 39.2 |  |
